From patent US20160106868A1, “OXYGEN FREE RADICAL DETECTION” (Progenitec Inc., priority 2014, published 2016)

Tests used:
[1] = tested on: isolated neutrophils (PMNs); assay: detection of ROS generated by isolated PMA-activated neutrophils with nanoprobes; type: cell-based; conditions: 5 mM Tempol; fluorescence signal remained constant
Method: A number of PMN (5×10^4 to 1×10^6) were incubated in 0.25 ml of 0.9% NaCl solution containing 10 mM phosphate buffer (pH 7.4), 6 mM KCl, and 6 mM MgCl2 in the presence of the nanoprobes (10 μl, 0.5 mg/ml). After incubation of the mixture for 3 min at 37° C., the reaction were initiated by adding 6 nM phorbol 12-myristate 13-acetate (PMA). During the incubation, chemiluminescence and fluorescence intensities were recorded continuously for 60 minutes using a microplate reader.
To verify whether the chemiluminescence signals resulted from ROS generated by activated PMNs, similar PMN-mediated chemiluminescence measurements were carried out in the presence or absence of Tempol, a superoxide dismutase mimetic/ROS neutralizer.

mouse peritoneal PMNs = assay: ROS chemiluminescence of PMA-activated PMNs, L-012 vs. luminol; type: cell-based; conditions: 1×10^6 PMNs, 2 mM probe; for chemiluminescence emission with PMA activation: PMA (6.5 nM)
Method: The ROS measurements were initiated by adding 10 μl of PMA (6.5 nM) at room temperature. Chemiluminescence images 410, 420 were captured with a 5 minute acquisition time using a Kodak In Vivo FX Pro system (f/stop, 2.5; no optical filter, 4×4 binning).

[2] = tested on: hypertension-suffering eye; assay: in vivo oxidative stress imaging of mouse eyes; conditions: L-012 10 μL, 15 mg/mL topically on eyes
Method: Referring now to FIG. 5, subsequent studies were carried out to evaluate the feasibility of L-012 for in vivo oxidative stress imaging. L-012 (10 μL, 15 mg/mL) was topically dropped on a mouse's eyes with hypertension-suffering left eye 510 or control right eye 520. The animal was sedated and then imaged with a Kodak in vivo FX imaging system, resulting in image 500. A strong bioluminescence signal was found in the hypertension-suffering left eye 510, while control right eye 520 emitted low or no chemiluminescence.

Compound	PMN-mediated chemiluminescence intensity in the presence of Tempol [1]	chemiluminescence emission with PMA activation (mouse peritoneal PMNs)	chemiluminescence signal intensity relative to luminol (mouse peritoneal PMNs; PMA activation, 5 minute acquisition)	signal enhancement in hypertension-suffering eye vs control eye [2]
CC1(C)CC(O)CC(C)(C)N1[O] [Tempol]	substantially reduced			
1,4-phthalazinedione, 5-amino-2,3-dihydro [luminol]		emitted chemiluminescence		
Nc1c(-c2ccccc2)nc(Cl)c2c(=O)[nH][nH]c(=O)c12 [L-012, 8-amino-5-chloro-7-phenylpyridol[3,4-d]pyridazine-1,4 (2H,3H)dione]		emitted chemiluminescence	approximately 1000 fold	ten-fold
